Test: physchem
Conditions: water

With NS(=O)(=O)c1nn2cc(-c3ccc(C(F)(F)F)cc3)nc2s1 [Compound 84] as the compound, how does the solubility read?
The solubility was under 500 µg/mL.

For COCCOCCOc1ccc(-c2cn3nc(S(N)(=O)=O)sc3n2)cc1 [Compound 71], which solubility is on record?
Its solubility is under 500 µg/mL.

Which solubility does the source give for NS(=O)(=O)c1nn2cc(-c3ccc4c(c3)OCO4)nc2s1 [Compound 65] here?
The solubility was under 500 µg/mL.

Which solubility does the source give for NS(=O)(=O)c1nn2cc(-c3cc4ccccc4o3)nc2s1 [Compound 129] here?
Its solubility is under 500 µg/mL.

With COc1ccc(-c2cccc(-c3cn4nc(S(N)(=O)=O)sc4n3)c2)cc1 [Compound 109] as the compound, how does the solubility read?
The solubility was under 500 µg/mL.

For NS(=O)(=O)c1nn2cc(C(F)(F)F)nc2s1 [Compound 91], which solubility is on record?
Its solubility is under 500 µg/mL.

For NS(=O)(=O)c1nn2cc(-c3ccc(OC(F)(F)F)cc3)nc2s1 [Compound 67], which solubility is on record?
Its solubility is under 500 µg/mL.

For Cc1onc(-c2ccccc2)c1-c1cn2nc(S(N)(=O)=O)sc2n1 [Compound 136], which solubility is on record?
Its solubility is under 500 µg/mL.

For NS(=O)(=O)c1nn2cc(-c3cc(C(F)(F)F)ccc3Cl)nc2s1 [Compound 85], which solubility is on record?
Its solubility is under 500 µg/mL.

For NS(=O)(=O)c1nn2cc(-c3cccc4ccccc34)nc2s1 [Compound 93], which solubility is on record?
Its solubility is under 500 µg/mL.

With NS(=O)(=O)c1nn2cc(-c3ccc(-c4cccc(OC(F)(F)F)c4)cc3)nc2s1 [Compound 102] as the compound, how does the solubility read?
The solubility was under 500 µg/mL.

Which solubility does the source give for COc1ccc(OC)c(-c2cn3nc(S(N)(=O)=O)sc3n2)c1 [Compound 63] here?
Its solubility is under 500 µg/mL.

Which solubility does the source give for NS(=O)(=O)c1nn2cc(-c3ccc(Cl)c(Cl)c3Cl)nc2s1 [Compound 58] here?
The solubility was under 500 µg/mL.

With NS(=O)(=O)c1nn2cc(-c3cccs3)nc2s1 [Compound 130] as the compound, how does the solubility read?
The solubility was under 500 µg/mL.

For NS(=O)(=O)c1nn2cc(-c3ccc(Oc4ccc(Cl)c(Cl)c4)cc3)nc2s1 [Compound 113], which solubility is on record?
Its solubility is under 500 µg/mL.

Which solubility does the source give for NS(=O)(=O)c1nn2cc(-c3ccc4c(c3)NC(=O)CO4)nc2s1 [Compound 128] here?
Its solubility is under 500 µg/mL.

For NS(=O)(=O)c1nn2cc(-c3ccc(N4CCCCC4)cc3)nc2s1 [Compound 96], which solubility is on record?
Its solubility is under 500 µg/mL.

For NS(=O)(=O)c1nn2cc(-c3ccccn3)nc2s1 [Compound 123], which solubility is on record?
Its solubility is under 500 µg/mL.

Which solubility does the source give for N#Cc1cccc(-c2cn3nc(S(N)(=O)=O)sc3n2)c1 [Compound 77] here?
Its solubility is under 500 µg/mL.

Which solubility does the source give for NS(=O)(=O)c1nn2cc(-c3ccccc3F)nc2s1 [Compound 52] here?
Its solubility is under 500 µg/mL.

Which solubility does the source give for NS(=O)(=O)c1nn2cc(-c3ccc(-c4ccccc4C(F)(F)F)cc3)nc2s1 [Compound 104] here?
Its solubility is under 500 µg/mL.

Which solubility does the source give for COc1ccccc1-c1ccc(-c2cn3nc(S(N)(=O)=O)sc3n2)cc1 [Compound 100] here?
The solubility was under 500 µg/mL.

Which solubility does the source give for COc1cccc(-c2cn3nc(S(N)(=O)=O)sc3n2)c1 [Compound 61] here?
The solubility was under 500 µg/mL.

With CC(C)(C)c1cc(-c2cn3nc(S(N)(=O)=O)sc3n2)c2c(c1)C(C)(C)CC2 [Compound 82] as the compound, how does the solubility read?
The solubility was under 500 µg/mL.

Which solubility does the source give for NS(=O)(=O)c1nn2cc(-c3cc(C(F)(F)F)cc(C(F)(F)F)c3)nc2s1 [Compound 86] here?
The solubility was under 500 µg/mL.

Which solubility does the source give for NS(=O)(=O)c1nn2cc(-c3cccc([N+](=O)[O-])c3)nc2s1 [Compound 74] here?
Its solubility is under 500 µg/mL.

Which solubility does the source give for NS(=O)(=O)c1nn2cc(-c3cccc(OC(F)(F)F)c3)nc2s1 [Compound 66] here?
Its solubility is under 500 µg/mL.

Which solubility does the source give for Cc1c(-c2cn3nc(S(N)(=O)=O)sc3n2)sc2ccccc12 [Compound 133] here?
Its solubility is under 500 µg/mL.

For Cc1c(-c2cn3nc(S(N)(=O)=O)sc3n2)cnn1-c1ccccc1 [Compound 137], which solubility is on record?
The solubility was under 500 µg/mL.

Which solubility does the source give for COc1ccc(Oc2ccc(-c3cn4nc(S(N)(=O)=O)sc4n3)cc2)cc1 [Compound 119] here?
The solubility was under 500 µg/mL.

Which solubility does the source give for Cc1ccc(-c2cn3nc(S(N)(=O)=O)sc3n2)cc1 [Compound 79] here?
Its solubility is under 500 µg/mL.

Which solubility does the source give for NS(=O)(=O)c1nn2cc(-c3ccc(OCCO)cc3)nc2s1 [Compound 68] here?
The solubility was under 500 µg/mL.

With CNS(=O)(=O)c1nn2cc(-c3ccccc3)nc2s1 [Compound 140] as the compound, how does the solubility read?
The solubility was under 500 µg/mL.

With COc1ccc(-c2cn3nc(S(N)(=O)=O)sc3n2)cc1 [Compound 62] as the compound, how does the solubility read?
Its solubility is under 500 µg/mL.

For NS(=O)(=O)c1nn2cc(-c3ccc(OCCCOCc4ccccc4)cc3)nc2s1 [Compound 73], which solubility is on record?
Its solubility is under 500 µg/mL.

For NS(=O)(=O)c1nn2cc(-c3cccc(F)c3)nc2s1 [Compound 53], which solubility is on record?
The solubility was under 500 µg/mL.

Source: patent publication US20070112043A1, “Acylated and non-acylated imidazo[2,1-b]-1,3,4,-thiadiazole-2-sulfonamides, and uses thereof” (priority 2003, published 2007)
